Earlier results as cited in patent US8377904B2, “Composition and method for use in cartilage affecting conditions” (Hill's Pet Nutrition, Inc., priority 2004, dated 2013).

Test system: pain of osteoarthritis

C[S+](CC[C@H](N)C(=O)[O-])C[C@H]1O[C@@H](n2cnc3c(N)ncnc32)[C@H](O)[C@@H]1O (some centres unmarked) [SAMe, S-adenosyl-L methionine]
Outcome compared with non-steroidal anti-inflammatory medication (meta analysis): not associated with statistically significant difference in outcomes | effective size in favor of SAMe compared to a placebo (one randomized clinical trial): 0.20
